Reference: PubChem BioAssay (NCI)
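Cells were grown in 96-well plates and exposed to each compound for 48 hours at five concentrations; endpoints were interpolated linearly between bracketing concentrations, or set to the highest concentration if not reached. At the GI50, growth is halved. TGI: total growth inhibition.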

Experiments:
Assay in all cases: growth of human tumour cells (NCI), 48 h
[1] = tested on: SW-620 colon
[2] = tested on: SF-268 CNS
[3] = tested on: MDA-MB-231 breast
[4] = tested on: OVCAR-8 ovarian
[5] = tested on: MALME-3M melanoma
[6] = tested on: HCT-116 colon
[7] = tested on: UACC-62 melanoma
[8] = tested on: DU-145 prostate
[9] = tested on: SK-MEL-28 melanoma
[10] = tested on: SK-MEL-5 melanoma
[11] = tested on: SN12C renal
[12] = tested on: HCT-15 colon
[13] = tested on: HOP-92 NSCLC
[14] = tested on: SK-OV-3 ovarian
[15] = tested on: HS 578T breast
[16] = tested on: 786-0 renal
[17] = tested on: HT29 colon
[18] = tested on: OVCAR-5 ovarian
[19] = tested on: A498 renal
[20] = tested on: M14 melanoma
[21] = tested on: CCRF-CEM leukemia
[22] = tested on: MDA-MB-435
[23] = tested on: ACHN renal
[24] = tested on: T-47D breast
[25] = tested on: OVCAR-4 ovarian
[26] = tested on: RXF 393 renal
[27] = tested on: UO-31 renal
[28] = tested on: SK-MEL-2 melanoma
[29] = tested on: RPMI-8226 leukemia
[30] = tested on: SR leukemia
[31] = tested on: K-562 leukemia
[32] = tested on: HCC-2998 colon
[33] = tested on: HOP-62 NSCLC
[34] = tested on: IGROV1 ovarian
[35] = tested on: NCI/ADR-RES ovarian
[36] = tested on: NCI-H460 lung
[37] = tested on: SNB-19 CNS
[38] = tested on: NCI-H226 lung
[39] = tested on: MOLT-4 leukemia
[40] = tested on: EKVX NSCLC
[41] = tested on: BT-549 breast
[42] = tested on: SNB-75 CNS
[43] = tested on: CAKI-1 renal
[44] = tested on: MDA-MB-468 breast
[45] = tested on: HL-60(TB) leukemia
[46] = tested on: KM12 colon
[47] = tested on: MCF7 breast
[48] = tested on: UACC-257 melanoma
[49] = tested on: TK-10 renal
[50] = tested on: COLO 205 colon
[51] = tested on: PC-3 prostate
[52] = tested on: LOX IMVI melanoma
[53] = tested on: SF-295 CNS
[54] = tested on: NCI-H23 lung
[55] = tested on: A549 NSCLC
[56] = tested on: OVCAR-3 ovarian
[57] = tested on: NCI-H522 lung
[58] = tested on: U251 CNS
[59] = tested on: SF-539 CNS

Cc1cc(N=C2NC(=O)/C(=C/c3cc(C(C)(C)C)c(O)c(C(C)(C)C)c3)S2)n[nH]1
GI50 [1]: 3.71 µM | TGI [1]: 14.2 µM | GI50 [2]: 4.69 µM | TGI [2]: 24.2 µM | GI50 [3]: 5.7 µM | TGI [3]: 20 µM | GI50 [4]: 3.69 µM | TGI [4]: 19.6 µM | GI50 [5]: 2700 nM | TGI [5]: 14.2 µM | GI50 [6]: 1880 nM | TGI [6]: 12.8 µM | GI50 [7]: 3.58 µM | TGI [7]: 15.3 µM | GI50 [8]: 4.87 µM | TGI [8]: > 100 µM | GI50 [9]: 4.67 µM | TGI [9]: 17.1 µM | GI50 [10]: 1630 nM | TGI [10]: 3.66 µM | GI50 [11]: 2700 nM | TGI [11]: 14.8 µM | GI50 [12]: 1500 nM | TGI [12]: 13.2 µM | GI50 [13]: 1870 nM | TGI [13]: 14.7 µM | GI50 [14]: 5.58 µM | TGI [14]: 21.1 µM | GI50 [15]: 1980 nM | TGI [15]: 13.2 µM | GI50 [16]: 3.81 µM | TGI [16]: 15.7 µM | GI50 [17]: 4.79 µM | TGI [17]: 25 µM | GI50 [18]: 5.61 µM | TGI [18]: 19.4 µM | GI50 [19]: 1490 nM | TGI [19]: 11.1 µM | GI50 [20]: 4.58 µM | TGI [20]: 19.2 µM | GI50 [21]: 1900 nM | TGI [21]: 14.9 µM | GI50 [22]: 4.04 µM | TGI [22]: 16.4 µM | GI50 [23]: 3.25 µM | TGI [23]: 14.4 µM | GI50 [24]: 2410 nM | TGI [24]: 24.9 µM | GI50 [25]: 3.09 µM | TGI [25]: 17.7 µM | GI50 [26]: 2190 nM | TGI [26]: 11.8 µM | GI50 [27]: 2100 nM | TGI [27]: 14.5 µM | GI50 [28]: 4.35 µM | TGI [28]: 18.8 µM | GI50 [29]: 2430 nM | TGI [29]: 13.3 µM | GI50 [30]: 3.33 µM | TGI [30]: 40.6 µM | GI50 [31]: 2470 nM | TGI [31]: > 100 µM | GI50 [32]: 4.22 µM | TGI [32]: 16.4 µM | GI50 [33]: 3.67 µM | TGI [33]: 21.1 µM | GI50 [34]: 2470 nM | TGI [34]: 16.8 µM | GI50 [35]: 1350 nM | TGI [35]: 14.3 µM | GI50 [36]: 755 nM | TGI [36]: 10.5 µM | GI50 [37]: 3.26 µM | TGI [37]: 15.8 µM | GI50 [38]: 1890 nM | TGI [38]: 15.1 µM | GI50 [39]: 2390 nM | TGI [39]: 14 µM | GI50 [40]: 1900 nM | TGI [40]: 10.8 µM | GI50 [41]: 2630 nM | TGI [41]: 12.2 µM | GI50 [42]: 4.6 µM | TGI [42]: 20.1 µM | GI50 [43]: 2710 nM | TGI [43]: 19.1 µM | GI50 [44]: 2550 nM | TGI [44]: 13.2 µM | GI50 [45]: 4.27 µM | TGI [45]: 23.8 µM | GI50 [46]: 4.28 µM | TGI [46]: 18 µM | GI50 [47]: 1930 nM | TGI [47]: 12.2 µM | GI50 [48]: 4.63 µM | TGI [48]: 19 µM | GI50 [49]: 6.19 µM | TGI [49]: 23.8 µM | GI50 [50]: 4.41 µM | TGI [50]: 18.9 µM | GI50 [51]: 1780 nM | TGI [51]: 22.3 µM | GI50 [52]: 2290 nM | TGI [52]: 14.5 µM | GI50 [53]: 1070 nM | TGI [53]: 10.8 µM | GI50 [54]: 2450 nM | TGI [54]: 13.3 µM | GI50 [55]: 2610 nM | TGI [55]: 18.3 µM | GI50 [56]: 3.68 µM | TGI [56]: 18.1 µM | GI50 [57]: 5.35 µM | TGI [57]: 20.5 µM | GI50 [58]: 2150 nM | TGI [58]: 13.6 µM | GI50 [59]: 4.6 µM | TGI [59]: 16.4 µM
